Data reported in ChEMBL document CHEMBL1146688, “Aminoimidazoles as bioisosteres of acylguanidines: novel, potent, selective and orally bioavailable inhibitors of the sodium hydrogen exchanger isoform-1” (Bioorg Med Chem Lett, 2004).

system: not listed separately; assay: Plasma half life in rat at oral dose 2.8 mg/mk body weight; assay type: ADME, organism-based; conditions: not given

| SMILES | half-life |
| --- | --- |
| CC1(C)C(c2cccc(Cl)c2)[C@H]1C(=O)NC(=N)N (single isomer, unassigned) | 5 h |
| Cc1nc(N)[nH]c1[C@@H]1C(c2cccc(Cl)c2)C1(C)C (single isomer, unassigned) | 5 h |

biological target: Sodium/hydrogen exchanger 1 (Homo sapiens, UniProt P19634); assay: Inhibition of sodium dependent recovery of pH following imposed acidosis in AP1 cell line expressing the human NHE-1 isoform.; assay type: functional, cell-based; conditions: not given
Sequence (P19634 whole entry, canonical isoform): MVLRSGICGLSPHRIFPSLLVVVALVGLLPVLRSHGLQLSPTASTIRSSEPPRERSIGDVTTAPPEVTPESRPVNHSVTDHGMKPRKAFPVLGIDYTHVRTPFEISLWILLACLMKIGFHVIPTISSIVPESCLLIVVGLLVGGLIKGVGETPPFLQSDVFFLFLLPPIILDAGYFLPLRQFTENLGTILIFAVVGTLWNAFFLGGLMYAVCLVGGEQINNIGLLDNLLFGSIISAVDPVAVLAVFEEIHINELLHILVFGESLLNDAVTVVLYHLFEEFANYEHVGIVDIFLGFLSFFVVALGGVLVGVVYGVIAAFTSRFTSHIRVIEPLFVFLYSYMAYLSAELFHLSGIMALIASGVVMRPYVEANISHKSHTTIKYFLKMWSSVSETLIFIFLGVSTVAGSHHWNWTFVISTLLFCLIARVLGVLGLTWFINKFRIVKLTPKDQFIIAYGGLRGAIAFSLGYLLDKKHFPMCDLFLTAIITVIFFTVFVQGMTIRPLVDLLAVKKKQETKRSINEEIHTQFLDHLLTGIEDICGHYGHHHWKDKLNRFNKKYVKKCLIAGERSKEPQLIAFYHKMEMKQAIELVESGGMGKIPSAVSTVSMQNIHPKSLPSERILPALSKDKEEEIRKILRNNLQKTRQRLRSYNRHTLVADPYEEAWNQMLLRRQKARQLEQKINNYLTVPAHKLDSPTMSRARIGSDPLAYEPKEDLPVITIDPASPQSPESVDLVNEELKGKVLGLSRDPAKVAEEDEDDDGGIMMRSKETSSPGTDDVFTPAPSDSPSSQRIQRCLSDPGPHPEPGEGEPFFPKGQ

| SMILES | IC50 |
| --- | --- |
| CC1(C)[C@H](c2c[nH]cn2)[C@H]1c1cccc2c1CCO2 | > 30 µM |
| CC1(C)[C@H](c2cnc(N)s2)[C@H]1c1cccc2c1CCO2 | > 30 µM |
| CSc1nccn1[C@@H]1[C@@H](c2cccc(Cl)c2)C1(C)C | 4.85 µM |
| CC1(C)[C@H](c2c[nH]c(N)n2)[C@H]1c1cccc2c1CCO2 | 3.8 µM |
| CC1(C)[C@H](c2nc(N)no2)[C@H]1c1cccc2c1CCO2 | 30 µM |
| Cc1[nH]cnc1[C@@H]1[C@@H](c2cccc3c2CCO3)C1(C)C | 11 µM |
| CC1(C)C(c2cc(Cl)cc(Cl)c2)[C@H]1c1cnc(N)s1 (single isomer, unassigned) | > 30 µM |
| CC1(C)C(c2cccc(Cl)c2)[C@H]1c1cnc(N)s1 (single isomer, unassigned) | 8 µM |
| CC1(C)C(c2cc(Cl)cc(Cl)c2)[C@H]1c1cnc[nH]1 (single isomer, unassigned) | 4 µM |

Compounds with a lower IC50, results first:

| IC50 | SMILES |
| --- | --- |
| 3.6 µM | CC1(C)C(c2cc(Cl)cc(Cl)c2)[C@H]1c1cc(N)nc(N)n1 (single isomer, unassigned) |
| 2.6 µM | Cc1[nH]c(N)nc1[C@@H]1[C@@H](c2cccc3c2CCO3)C1(C)C |
| 0.95 µM | Cc1[nH]cnc1[C@@H]1C(c2cc(Cl)cc(Cl)c2)C1(C)C (single isomer, unassigned) |
| 0.75 µM | CC1(C)C(c2cccc(Cl)c2)[C@H]1c1c[nH]c(N)n1 (single isomer, unassigned) |
| 0.18 µM | CC1(C)C(c2cc(Cl)cc(Cl)c2)[C@H]1c1c[nH]c(N)n1 (single isomer, unassigned) |
| 0.039 µM | Cc1nc(N)[nH]c1[C@@H]1C(c2cccc(Cl)c2)C1(C)C (single isomer, unassigned) |
| 0.021 µM | CC1(C)C(c2cccc(Cl)c2)[C@H]1C(=O)NC(=N)N (single isomer, unassigned) |
| 0.008 µM | Cc1[nH]c(N)nc1[C@@H]1C(c2cc(Cl)cc(Cl)c2)C1(C)C (single isomer, unassigned) |

system: not listed separately; assay: Oral bioavailability in rat (dose 2.8 mg/kg p.o.); assay type: ADME, organism-based; conditions: in vivo

| bioavailability | SMILES |
| --- | --- |
| 26% | CC1(C)C(c2cccc(Cl)c2)[C@H]1C(=O)NC(=N)N (single isomer, unassigned) |
| 26% | Cc1nc(N)[nH]c1[C@@H]1C(c2cccc(Cl)c2)C1(C)C (single isomer, unassigned) |
